Where “and” joins values, the source holds several entries; their conditions need not be identical. Equal entries are not always repeated. Structures can show the parent of a compound that is named as a salt.
Tests used:
[1] = tested on: L3.6pl cells; assay: Primary pancreatic tumour growth and metastases growing orthotopically in nude mice; type: in vivo; settings: gemcitabine 100 mg/kg i.p. twice weekly, ZD6126 75 mg/kg i.p. daily 5 days per week; for Liver Met: animals with liver metastases / animals in group; for Liver Met / LN Met / Peritoneal Carcinosis / Tumour Weight Average ± std dev: 25 days after tumour cell injection; for LN Met: animals with lymph node metastases / animals in group; for Incidence Pancreas: animals with pancreatic tumours / animals in group, sacrificed 25 days after tumour cell injection; for Peritoneal Carcinosis: animals with peritoneal carcinosis / animals in group; for Tumour Weight Average ± std dev: primary pancreatic tumour weight
Description: (§1) Model to Investigate Effects of ZD6126 and Gemcitabine Therapy on Primary Pancreatic Tumour Growth and Metastases Growing Orthotopically in Nude Mice Nude mice (n=8 to 10 per group) were treated 9 days after injection of 1×10^6 L3.6pl cells into the pancreas, with gemcitabine alone (100 mg/kg by intraperitoneal injection (i.p.) twice weekly on treatment days 2, 5, 9, 12), ZD6126 alone (75 mg/kg i.p. daily for 5 days per week on treatment days 1-5 and 8-12), or a combination of both agents ie gemcitabine (100 mg/kg i.p. twice weekly) and ZD6126 (75 mg/kg i.p. daily for 5 days per week). Thus the combination group received ZD6126 on treatment days 1-5 and 8-12 and gemcitabine on treatment days 2 and 5 and 9 and 12. On the days where both agents were given, gemcitabine was dosed at least 1 hour before ZD6126. A control group of 10 mice received intraperitoneal injections of an equivalent volume of saline according to the same treatment schedule as the combination group. The animals were sacrificed 25 days after tumour cell injection. The incidence of pancreatic tumours, liver metastases, lymph node metastases and peritoneal carcinosis was evaluated. The primary pancreatic tumour weight was measured. All macroscopically enlarged lymph nodes and liver nodules were confirmed by histopathology (H&E staining).

[2] = Body weight in the orthotopic pancreatic tumour model in nude mice; type: in vivo; settings: 25 days after tumour cell injection; gemcitabine 100 mg/kg i.p. twice weekly, ZD6126 75 mg/kg i.p. daily 5 days per week
Description: as §1, with “Nude” for “Model to Investigate Effects of ZD6126 and Gemcitabine Therapy on Primary Pancreatic Tumour Growth and Metastases Growing Orthotopically in Nude Mice Nude”, “injection.” for “injection. The incidence of pancreatic tumours, liver metastases, lymph node metastases and peritoneal carcinosis was evaluated. The primary pancreatic tumour weight was measured. All macroscopically enlarged lymph nodes and liver nodules were confirmed by histopathology (H&E staining).”

Structure (SMILES)	Liver Met [1]	LN Met [1]	Incidence Pancreas [1]	Peritoneal Carcinosis [1]	Tumour Weight Average ± std dev [1]	Body Weight Average ± std dev [2]	Tumour Weight Average ± std dev ([1]; listed as gemcitabine)
COc1cc2c(c(OC)c1OC)-c1ccc(OP(=O)(O)O)cc1[C@@H](NC(C)=O)CC2 [ZD6126, N-acetylcolchinol-O-phosphate]	1/8	2/8	8/8	0/8	541 mg and 541 ± 201 mg	18.5 ± 1.9 g	
Nc1ccn([C@@H]2O[C@H](CO)[C@@H](O)C2(F)F)c(=O)n1 [Gemcitabine, 2′-deoxy-2′,2′-difluorocytidine monohydrochloride (β-isomer)]	2/10	10/10	10/10	1/10	687 ± 157 mg	19.1 ± 2.2 g	687 mg

From US20060058260A1, “Combination therapy with gemcitabine and zd6126” (priority 2002, published 2006)
